T1: ADAMTS5 (Homo sapiens, UniProt Q9UNA0)
T1 construct: purchased R&D systems
T1 sequence (Q9UNA0 262-930): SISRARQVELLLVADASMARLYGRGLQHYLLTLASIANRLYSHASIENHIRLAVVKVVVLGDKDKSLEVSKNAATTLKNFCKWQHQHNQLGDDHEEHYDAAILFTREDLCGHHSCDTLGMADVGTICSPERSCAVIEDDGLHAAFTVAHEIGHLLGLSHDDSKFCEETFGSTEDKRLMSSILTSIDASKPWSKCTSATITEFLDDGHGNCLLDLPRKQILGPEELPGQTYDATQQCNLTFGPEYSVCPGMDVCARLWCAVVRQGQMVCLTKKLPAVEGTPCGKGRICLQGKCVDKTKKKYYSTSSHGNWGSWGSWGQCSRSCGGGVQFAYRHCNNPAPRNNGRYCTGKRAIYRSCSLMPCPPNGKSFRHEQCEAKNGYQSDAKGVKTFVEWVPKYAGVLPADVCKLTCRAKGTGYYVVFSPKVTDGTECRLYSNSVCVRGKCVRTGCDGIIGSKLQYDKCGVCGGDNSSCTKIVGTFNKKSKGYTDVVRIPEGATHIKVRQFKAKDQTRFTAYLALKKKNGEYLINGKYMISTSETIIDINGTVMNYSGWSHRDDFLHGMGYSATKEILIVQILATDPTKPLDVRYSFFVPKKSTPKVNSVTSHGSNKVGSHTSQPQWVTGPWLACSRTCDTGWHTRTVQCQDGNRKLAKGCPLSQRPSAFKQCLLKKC

B1: 2 (nucleic acid)
chain: GGGUACGACCGUCGUACGAUUGGGCCUCCACAGCUGCUCAGCUUGGACUAAACCAAUAAGAGACUAACGCCUAGCGUAC
modifications: 2'-fluoro at CU, RNA at AG, backbone not given here
B2: 1 (nucleic acid)
chain: GGGUACGACCGUCGUACGAUUGGGGCCUCCACAGCUGCUCAGCUUGGACUAAACCAAUAAGAGACUAACGCCUAGCGUAC
modifications: 2'-fluoro at CU, RNA at AG, backbone not given here

The molecules below were run against T1, ADAMTS5 (assay: binding activity to ADAMTS5 by surface plasmon resonance (Biacore T100)). Conditions: Table 1; 0.1 μM ADAMTS5 analyte, aptamer immobilized on SA chip.
Procedure: The binding activity of aptamers having the nucleotide sequences shown in SEQ ID NOs: 1 and 2 to ADAMTS5 was evaluated by the surface plasmon resonance method. Biacore T100 manufactured by GE Healthcare was used for the measurement. The SA chip was used as the sensor chip, which had streptavidin immobilized thereon. About 800 RU of a 16-nucleotide Poly dT with biotin at the 5′-terminal was bound on the chip. […] ADAMTS5 for analyte was prepared at 0.1 μM, and injected at a flow rate of 30 μL/min for 60 sec. As the running buffer, solution C was used. The solution C is a mixed solution of 300 mM sodium chloride, 5.4 mM potassium chloride, 1.8 mM calcium chloride, 0.8 mM magnesium chloride, 20 mM tris (pH 7.6), and 0.05% Tween20.
SEQ ID NO: 2 has a sequence with one base deletion from the continuous 4 G bases in the consensus sequence, and it was shown from the measurement results of the binding activity that the continuous 4 G bases in the consensus sequence are important for the activity of aptamers. Sensorgram showing the binding of an aptamer having the nucleotide sequence shown in SEQ ID NO: 1 to ADAMTS5 is presented in FIG. 2. In Table 1, “++” indicates those with the proportion of ADAMTS5 binding amount (RU value) to the amount of aptamer immobilized on the SA chip (RU value) of not less than 40%, “+” indicates those with the proportion of not less than 10% and less than 40%, and “−” indicates those with the proportion of less than 10%.
The binding activity and enzyme inhibitory activity of aptamers having nucleotide sequences shown in SEQ ID NOs: 16-25 to ADAMTS5 were measured. The binding activity was evaluated by the surface plasmon resonance method. For the measurement, a method similar to that in Example 1 was used. The enzyme inhibitory activity was measured by a method similar to that in Example 1. […] The negative control nucleic acid refers to the nucleic acid pool used in the first round of the SELEX method. The “++” indicates those with the proportion of ADAMTS5 binding amount (RU value) to the amount of aptamer immobilized on the SA chip (RU value) of not less than 40%, and “+” indicates those with the proportion of less than 40%. […] “n.d.” means not determined.
The binding activity of the nucleic acids shown in SEQ ID NOs: 30-45 to ADAMTS5 was measured. The binding activity was evaluated by the surface plasmon resonance method. In the Table, “++” indicates those with the proportion of ADAMTS5 binding amount (RU value) to the amount of aptamer immobilized on the SA chip (RU value) of not less than 40%, “+” indicates those with the proportion of not less than 10% and less than 40%, and “−” indicates those with the proportion of less than 10%.

Row | Molecule | binding activity by Biacore
1 | B1 | − (proportion of less than 10%)
2 | B2 | ++ (proportion of ADAMTS5 binding amount (RU value) to the amount of aptamer immobilized on the SA chip (RU value) of not less than 40%)

Same assay, conditions: Table 10

Row | Molecule | binding activity
3 | 33 (GGGUAUUGGGGCCUCCACAGCCGAGGCUUGGACUAAACCAAUCUCGA; aptamer; 2'-fluoro at CU, RNA at AG, backbone not given here) [compound 33] | ++ (proportion of ADAMTS5 binding amount (RU value) to the amount of aptamer immobilized on the SA chip (RU value) of not less than 40%)
4 | 34 (GGGUAUUGGGGCCUCCACAGAAAAAACUUGGACUAAACCAACUCGA; aptamer; 2'-fluoro at CU, RNA at AG, backbone not given here) [compound 34] | ++ (proportion of ADAMTS5 binding amount (RU value) to the amount of aptamer immobilized on the SA chip (RU value) of not less than 40%)
5 | 35 (GGGUAUUGGGGCCUCCACAGUAAGCACUUGGACUAAACCAGCUCGA; aptamer; 2'-fluoro at CU, RNA at AG, backbone not given here) [compound 35] | ++ (proportion of ADAMTS5 binding amount (RU value) to the amount of aptamer immobilized on the SA chip (RU value) of not less than 40%)
6 | 36 (GGGUAUUGGGGCCUCCACAGUUUAAACUUGGACUAAACCAACUCGA; aptamer; 2'-fluoro at CU, RNA at AG, backbone not given here) [compound 36] | ++ (proportion of ADAMTS5 binding amount (RU value) to the amount of aptamer immobilized on the SA chip (RU value) of not less than 40%)
7 | 37 (GGGUAUUGGGGCCUCCACAGUAAAUUCUUGGACUAAACCAACUCGA; aptamer; 2'-fluoro at CU, RNA at AG, backbone not given here) [compound 37] | ++ (proportion of ADAMTS5 binding amount (RU value) to the amount of aptamer immobilized on the SA chip (RU value) of not less than 40%)
8 | 38 (GGGUAUUGGGGCCUCCACGCUAGAAGGCUGGACUAAACCAACUCGA; aptamer; 2'-fluoro at CU, RNA at AG, backbone not given here) [compound 38] | ++ (proportion of ADAMTS5 binding amount (RU value) to the amount of aptamer immobilized on the SA chip (RU value) of not less than 40%)
9 | 39 (GGGUAUUGGGGCCUCCACGUAACUAAACUGGACUAAACCAACUCGA; aptamer; 2'-fluoro at CU, RNA at AG, backbone not given here) [compound 39] | ++ (proportion of ADAMTS5 binding amount (RU value) to the amount of aptamer immobilized on the SA chip (RU value) of not less than 40%)
10 | 40 (GGGUAUUGGGGCCUCCACGCAAUGGUGCUGGACUAAACCAACUCGA; aptamer; 2'-fluoro at CU, RNA at AG, backbone not given here) [compound 40] | ++ (proportion of ADAMTS5 binding amount (RU value) to the amount of aptamer immobilized on the SA chip (RU value) of not less than 40%)
11 | 41 (GGGUAUUGGGGCCUCCACAUGGAUACAUUGGACUAAACCAACUCGA; aptamer; 2'-fluoro at CU, RNA at AG, backbone not given here) [compound 41] | ++ (proportion of ADAMTS5 binding amount (RU value) to the amount of aptamer immobilized on the SA chip (RU value) of not less than 40%)
12 | 42 (GGGUAUUGGGGCCUCCACAGAUAAUUCUUGGACUAAACCAACUCGA; aptamer; 2'-fluoro at CU, RNA at AG, backbone not given here) [compound 42] | ++ (proportion of ADAMTS5 binding amount (RU value) to the amount of aptamer immobilized on the SA chip (RU value) of not less than 40%)
13 | 43 (GGGUAUUGGGGCCUCCACAGAAAAUUCUUGGACUAAACCAACUCGA; aptamer; 2'-fluoro at CU, RNA at AG, backbone not given here) [compound 43] | ++ (proportion of ADAMTS5 binding amount (RU value) to the amount of aptamer immobilized on the SA chip (RU value) of not less than 40%)
14 | 44 (GGGUAUUGGGGCCUCCACAGAACUUUCUUGGACUAAACCAACUCGA; aptamer; 2'-fluoro at CU, RNA at AG, backbone not given here) [compound 44] | ++ (proportion of ADAMTS5 binding amount (RU value) to the amount of aptamer immobilized on the SA chip (RU value) of not less than 40%)
15 | 45 (GGGUAUUGGGGCCUCCACAGAAAAGUCUUGGACUAAACCAACUCGA; aptamer; 2'-fluoro at CU, RNA at AG, backbone not given here) [compound 45] | ++ (proportion of ADAMTS5 binding amount (RU value) to the amount of aptamer immobilized on the SA chip (RU value) of not less than 40%)

Same assay, conditions: surface plasmon resonance

Row | Molecule | binding to ADAMTS5 (in words)
16 | B1 | did not bind to ADAMTS5
17 | B2 | binds to ADAMTS5

Each molecule was assayed against T1, ADAMTS5 (assay: ADAMTS5 enzyme inhibition, aggrecan G1-IGD-G2 cleavage, SDS-PAGE detection (evaluation method 1)). Conditions: Table 2; mean of four measurements; 5 nM ADAMTS5, 50 μg/mL substrate; read-out: IC50, inhibitory activity against ADAMTS5.
Format: biochemical
Procedure: Whether an aptamer having the nucleotide sequence shown in SEQ ID NO: 1 inhibits the enzyme activity of ADAMTS5 was evaluated by the following method. As a substrate of ADAMTS5, the G1-IGD-G2 domain of aggrecan (manufactured by R&D systems) was used. ADAMTS5 specifically cleaves in between the 392nd glutamic acid and the 393rd alanine in the G1-IGD-G2 domain and produces two fragments. These fragments have faster electrophoretic mobility than uncleaved G1-IGD-G2. Thus, the enzyme activity of ADAMTS5 can be measured by quantifying the band intensity of G1-IGD-G2 by SDS-PAGE electrophoresis. The assay was performed in a solution A buffer with a reaction mixture volume of 10 μL. First, a mixture (10 μL) of a nucleic acid and ADAMTS5 was prepared and incubated at 25° C. for 15 min. To a substrate solution (5 μL) diluted with solution A was added a mixture (5 μL) of the nucleic acid and ADAMTS5 to start the enzyme reaction. The final concentration of ADAMTS5 in the reaction solution was 5 nM, and the final substrate concentration was 50 μg/mL. The reaction solution was incubated at 37° C. for 2 hr, 2 μL of solution D was added, and the mixture was heated at 95° C. for 2 min to stop the enzyme reaction of ADAMTS5. Solution D contains 0.25 M tris (pH 6.8), 10% SDS, 50% glycerol, 0.25% bromo phenolblue, and 20% 2-mercaptoethanol. The heat-treated reaction solution was electrophoresed by 7.5% SDS-PAGE and stained with SYPRO Orange (manufactured by Sigma-Aldrich). The staining was performed according to the manual of Sigma-Aldrich and detected using STORM840 manufactured by GE Healthcare. For analytical curves, uncleaved substrates 1000 ng, 400 ng, 160 ng, 64 ng, 25.6 ng, 10.24 ng, and 4.1 ng were electrophoresed, and staining and detection were performed in the same manner. The amount of uncleaved substrate in each reaction solution was quantified from the band intensity and the standard curve. The substrate cleavage efficiency of ADAMTS5 under these reaction conditions was 80-100%. The inhibition rate of the test substance was calculated using the following equation. inhibition rate (%)=(Sapt−SE)/(S0−SE)×100 wherein Sapt is the amount of an uncleaved substrate with the addition of a test substance, SE is the residual amount of an uncleaved substrate with the addition of ADAMTS5, and S0 is the residual amount of an uncleaved substrate without the addition of ADAMTS5.
The concentration of an inhibitor necessary for inhibiting 50% of the enzyme activity (IC50) was determined. IC50 is a mean of four measurements.

Row | Molecule | IC50 [nM]
18 | B2 | 16.8 ± 2.8

Reference: patent US11473089B2, “Aptamer for ADAMTS5 and use for aptamer for ADAMTS5” (RIBOMIC INC., priority 2017, dated 2022)
